≈ marks a conversion by molar mass, not a printed value. Calls of active or inactive are those of the source. No cut-off for these calls is given here.
Columns and labels:
Bacillus subtilis = assay: Antimicrobial activity against Bacillus subtilis by serial dilution method; format: functional
Micrococcus luteus = assay: Antimicrobial activity against Micrococcus luteus by serial dilution method; format: functional
[1] = tested on: Corynebacterium glutamicum; assay: Antimicrobial activity against Corynebacterium glutamicum by serial dilution method; format: functional
Escherichia coli = assay: Antimicrobial activity against Escherichia coli by serial dilution method; format: functional
Staphylococcus aureus = assay: Antimicrobial activity against Staphylococcus aureus by serial dilution method; format: functional
Saccharomyces cerevisiae = assay: Antimicrobial activity against Saccharomyces cerevisiae by serial dilution method; format: functional
Mycolicibacterium phlei = assay: Antimicrobial activity against Mycobacterium phlei by serial dilution method; format: functional
Agromyces mediolanus = assay: Antimicrobial activity against Corynebacterium mediolanum by serial dilution method; format: functional
Gordonia rubripertincta = assay: Antimicrobial activity against Nocardia coralline by serial dilution method; format: functional
Mycobacterium sp. = assay: Antimicrobial activity against Mycobacterium sp. by serial dilution method; format: functional, organism-based

Structure (SMILES) | MIC (Bacillus subtilis) [µg/mL] | MIC (Micrococcus luteus) [µg/mL] | MIC [1] [µg/mL] | MIC (Escherichia coli) [µg/mL] | MIC (Staphylococcus aureus) [µg/mL] | MIC (Saccharomyces cerevisiae) [µg/mL] | MIC (Mycolicibacterium phlei) [µg/mL] | MIC (Agromyces mediolanus) [µg/mL] | Activity (Gordonia rubripertincta) | Activity (Mycobacterium sp.)
CO[C@@H]1C/C=C\C=C\C[C@H](C)[C@@H](O)[C@H](C)[C@@H](O)[C@H](C)[C@H](O)CC(=O)O[C@H]([C@H](C)[C@H](O)/C=C(C)/C=C/C=C/C=C/C=C/C=C/C[C@H](O)/C(C)=C/CCC(=O)O)C[C@H](O)CCC1 [ETNANGIEN] | 10 (≈ 11.9 µM) | 0.39 (≈ 0.464 µM) | 0.03 (≈ 0.0357 µM) | > 80 | 1 (≈ 1.19 µM) | > 80 | 0.12 (≈ 0.143 µM) | 0.06 (≈ 0.0713 µM) | Active | Active
COC(=O)CC/C=C(\C)[C@@H](O)C/C=C/C=C/C=C/C=C/C=C/C(C)=C/[C@@H](O)[C@@H](C)[C@@H]1C[C@H](O)CCC[C@H](OC)C/C=C\C=C\C[C@H](C)[C@@H](O)[C@H](C)[C@@H](O)[C@H](C)[C@H](O)CC(=O)O1 [ETNANGIEN METHYL ESTER] | 20 (≈ 23.4 µM) | 0.06 (≈ 0.0702 µM) | 0.24 (≈ 0.281 µM) | > 20 | 2.5 (≈ 2.92 µM) | > 40 |  |  | Active | Active
COC(=O)CC/C=C/[C@@H](O)C/C=C/C=C/C=C/C=C/C=C/[C@@H](O)[C@@H](C)COCc1ccc(OC)cc1 | > 80 | > 80 | 80 (≈ 161 µM) | > 80 | > 80 | > 80 | > 40 | > 80 |  | 

Further lines, with some results ahead:

MIC (Bacillus subtilis) [µg/mL] | MIC (Micrococcus luteus) [µg/mL] | MIC [1] [µg/mL] | MIC (Escherichia coli) [µg/mL] | MIC (Staphylococcus aureus) [µg/mL] | MIC (Saccharomyces cerevisiae) [µg/mL] | MIC (Mycolicibacterium phlei) [µg/mL] | MIC (Agromyces mediolanus) [µg/mL] | Structure (SMILES) | Activity (Gordonia rubripertincta) | Activity (Mycobacterium sp.)
> 80 | > 80 | > 80 | > 80 | > 80 | > 80 | > 40 | > 80 | COC(=O)CC/C=C/[C@@H](O)C/C=C/C=C/C=C/C=C/C=C/[C@@H](O)[C@@H](C)CO |  | 
20 (≈ 49.4 µM) | > 80 | 80 (≈ 198 µM) | > 80 | 80 (≈ 198 µM) | > 80 | > 40 | 40 (≈ 98.9 µM) | COC(=O)CC/C=C/[C@@H](O)C/C=C/C=C/C=C/CC/C=C/C=C/[C@@H](O)[C@@H](C)CO |  | 
> 40 | > 40 | > 40 | > 40 | > 40 | > 40 | > 40 | > 40 | COC(=O)CC/C(C)=C/[C@@H](O)C/C=C/C=C/C=C/C=C/C=C/C(C)=C/[C@@H](O)[C@@H](C)COCc1ccc(OC)cc1 |  | 
> 80 | > 80 | > 80 | > 80 | > 80 | > 80 | > 40 | > 80 | COC(=O)CC/C=C/[C@@H](O)C/C=C/C=C/C=C/CC/C=C/C=C/[C@@H](O)[C@@H](C)COCc1ccc(OC)cc1 |  | 

Reference: ChEMBL document CHEMBL2062489, “Design, synthesis and biological evaluation of simplified side chains of the macrolide antibiotic etnangien” (2012)
